{
  "source": "ChEMBL document CHEMBL1781926",
  "about": "“Synthesis of 1-naphtylpiperazine derivatives as serotoninergic ligands and their evaluation as antiproliferative agents” (Eur J Med Chem, 2011)",
  "key": {"PC-3 [1]": {"tested_on": "PC-3", "experiment": "Cell cycle arrest in human PC3 cells assessed as accumulation at G1 phase at 2 uM after 24 hrs using propidium iodide staining by flow cytometry (reference value: 46.97 %)", "assay_type": "functional"}, "PC-3 [2]": {"tested_on": "PC-3", "experiment": "Cell cycle arrest in human PC3 cells assessed as accumulation at G2 phase at 2 uM after 24 hrs using propidium iodide staining by flow cytometry (reference value: 18.19 %)", "assay_type": "functional"}, "PC-3 [3]": {"tested_on": "PC-3", "experiment": "Cell cycle arrest in human PC3 cells assessed as accumulation at S phase at 2 uM after 24 hrs using propidium iodide staining by flow cytometry (reference value: 34.84 %)", "assay_type": "functional"}, "PC-3 [4]": {"tested_on": "PC-3", "experiment": "Induction of apoptosis human PC3 cells assessed as externalization of phosphatidylserine on the outer layer of plasma membrane at 1 uM after 24 to 48 hrs using Annexin-V-FITC staining by flow cytometry", "assay_type": "functional, cell-based"}, "PC-3 [5]": {"tested_on": "PC-3", "experiment": "Inhibition of serotonin-induced MAPK phosphorylation in human PC3 cells at 2 uM after 48 hrs by Western blotting", "assay_type": "cell-based"}, "PC-3 [6]": {"tested_on": "PC-3", "experiment": "Induction of apoptosis in human PC3 cells at 2 uM after 24 hrs using propidium iodide staining by flow cytometry (reference value: 1.27 %)", "assay_type": "functional"}, "PC-3 [7]": {"tested_on": "PC-3", "experiment": "Cell cycle arrest in human PC3 cells assessed as accumulation at G2 phase at 2 uM after 48 hrs using propidium iodide staining by flow cytometry (reference value: 13.36 %)", "assay_type": "functional"}, "PC-3 [8]": {"tested_on": "PC-3", "experiment": "Induction of apoptosis in human PC3 cells at 2 uM after 72 hrs using propidium iodide staining by flow cytometry (reference value: 1.79 %)", "assay_type": "functional"}, "PC-3 [9]": {"tested_on": "PC-3", "experiment": "Induction of apoptosis in human PC3 cells at 2 uM after 48 hrs using propidium iodide staining by flow cytometry (reference value: 0.84 %)", "assay_type": "functional"}, "PC-3 [10]": {"tested_on": "PC-3", "experiment": "Cell cycle arrest in human PC3 cells assessed as accumulation at G1 phase at 2 uM after 72 hrs using propidium iodide staining by flow cytometry (reference value: 42.19 %)", "assay_type": "functional"}, "PC-3 [11]": {"tested_on": "PC-3", "experiment": "Cell cycle arrest in human PC3 cells assessed as accumulation at S phase at 2 uM after 48 hrs using propidium iodide staining by flow cytometry (reference value: 38.16 %)", "assay_type": "functional"}, "PC-3 [12]": {"tested_on": "PC-3", "experiment": "Cell cycle arrest in human PC3 cells assessed as accumulation at S phase at 2 uM after 72 hrs using propidium iodide staining by flow cytometry (reference value: 37.73 %)", "assay_type": "functional"}, "[13]": {"target": "RAC-alpha serine/threonine-protein kinase (Homo sapiens) (UniProt P31749)", "sequence (P31749 whole entry)": "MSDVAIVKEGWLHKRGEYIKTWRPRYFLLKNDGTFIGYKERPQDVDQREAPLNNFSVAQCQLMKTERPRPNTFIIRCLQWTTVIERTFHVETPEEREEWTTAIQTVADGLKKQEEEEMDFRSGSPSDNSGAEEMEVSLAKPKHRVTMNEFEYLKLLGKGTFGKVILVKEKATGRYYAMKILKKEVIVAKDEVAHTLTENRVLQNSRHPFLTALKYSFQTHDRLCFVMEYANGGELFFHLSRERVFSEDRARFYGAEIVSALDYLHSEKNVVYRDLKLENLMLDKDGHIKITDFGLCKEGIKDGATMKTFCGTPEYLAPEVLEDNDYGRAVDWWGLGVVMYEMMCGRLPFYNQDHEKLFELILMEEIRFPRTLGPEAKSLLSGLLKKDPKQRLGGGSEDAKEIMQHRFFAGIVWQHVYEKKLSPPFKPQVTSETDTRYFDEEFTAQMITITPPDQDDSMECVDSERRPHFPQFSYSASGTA", "experiment": "Inhibition of serotonin-induced AKT phosphorylation in human PC3 cells at 2 uM after 48 hrs by Western blotting", "assay_type": "cell-based", "conditions": "PC-3"}, "PC-3 [14]": {"tested_on": "PC-3", "experiment": "Cell cycle arrest in human PC3 cells assessed as accumulation at G2 phase at 2 uM after 72 hrs using propidium iodide staining by flow cytometry (reference value: 20.18 %)", "assay_type": "functional"}, "PC-3 [15]": {"tested_on": "PC-3", "experiment": "Cell cycle arrest in human PC3 cells assessed as accumulation at G1 phase at 2 uM after 48 hrs using propidium iodide staining by flow cytometry (reference value: 54.14 %)", "assay_type": "functional"}},
  "note": "Calls of active or inactive are those of the source. The rule behind the calls is not given here.",
  "data": [
    {"compound": "CC[C@@]1(O)C(=O)OCc2c1cc1n(c2=O)Cc2cc3c(CN(C)C)c(O)ccc3nc2-1", "note": "[TOPOTECAN]", "values": [
      {"measurement": "Activity", "setting": "PC-3 [1]", "result": 37.23, "unit": "%"},
      {"measurement": "Activity", "setting": "PC-3 [2]", "result": 28.86, "unit": "%"},
      {"measurement": "Activity", "setting": "PC-3 [3]", "result": 33.91, "unit": "%"},
      {"measurement": "Activity", "setting": "PC-3 [4]", "result": "Active"},
      {"measurement": "inhibition", "setting": "PC-3 [5]", "result": "inactive"},
      {"measurement": "Activity", "setting": "PC-3 [6]", "result": 5.43, "unit": "%"},
      {"measurement": "Activity", "setting": "PC-3 [7]", "result": 19.07, "unit": "%"},
      {"measurement": "Activity", "setting": "PC-3 [8]", "result": 8.14, "unit": "%"},
      {"measurement": "Activity", "setting": "PC-3 [9]", "result": 16.32, "unit": "%"},
      {"measurement": "Activity", "setting": "PC-3 [10]", "result": 0, "unit": "%"},
      {"measurement": "Activity", "setting": "PC-3 [11]", "result": 61.76, "unit": "%"},
      {"measurement": "Activity", "setting": "PC-3 [12]", "result": 63.69, "unit": "%"},
      {"measurement": "inhibition", "setting": "[13]", "result": "Active"},
      {"measurement": "Activity", "setting": "PC-3 [14]", "result": 36.31, "unit": "%"},
      {"measurement": "Activity", "setting": "PC-3 [15]", "result": 19.17, "unit": "%"}
    ]}
  ]
}
